Test results as given in US6642355B2, “Endothelin-antagonizing peptide” (priority 1991, dated 2003).
Read-outs that look alike come from different tables or passages of the source. Bridge positions count the residues as written; N and C are the ends. Peptide text beside a SMILES is read from it.

Biological target: T1, endothelin receptor (Bos taurus, UniProt P28088)
T1 construct: from tissue; host or cells: bovine cerebellar membrane fraction
T1 sequence (P28088 27-441): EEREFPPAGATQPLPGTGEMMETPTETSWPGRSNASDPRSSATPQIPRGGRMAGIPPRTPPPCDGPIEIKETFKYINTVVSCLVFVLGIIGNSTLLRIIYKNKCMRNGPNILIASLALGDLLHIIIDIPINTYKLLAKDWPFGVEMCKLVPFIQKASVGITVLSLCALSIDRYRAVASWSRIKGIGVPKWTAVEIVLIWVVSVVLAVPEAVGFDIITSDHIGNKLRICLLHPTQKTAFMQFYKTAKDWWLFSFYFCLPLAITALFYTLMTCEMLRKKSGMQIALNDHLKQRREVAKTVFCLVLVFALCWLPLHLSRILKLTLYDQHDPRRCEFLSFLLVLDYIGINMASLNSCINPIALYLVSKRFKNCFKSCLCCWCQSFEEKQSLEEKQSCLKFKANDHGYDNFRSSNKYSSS
Assay: Endothelin receptor-antagonizing effect: 125I-endothelin-1 binding to bovine cerebellar tissue membrane fraction

[1] = bovine cerebellar tissue membrane fraction

SMILES: C[C@@H]1NC(=O)[C@H]([C@@H](C)O)NC(=O)CNC(=O)[C@H](Cc2c[nH]cn2)NC(=O)[C@H](Cc2c[nH]c3ccccc23)NC(=O)[C@H](CC(N)=O)NC(=O)[C@@H](N)CSSC[C@@H](C(=O)N[C@@H](Cc2c[nH]c3ccccc23)C(=O)N[C@@H](Cc2ccccc2)C(=O)N[C@@H](Cc2ccccc2)C(=O)N[C@@H](CC(N)=O)C(=O)N[C@@H](Cc2ccc(O)cc2)C(=O)N[C@@H](Cc2ccc(O)cc2)C(=O)N[C@@H](Cc2c[nH]c3ccccc23)C(=O)O)NC(=O)[C@@H]2CCCN2C1=O [Compound I-7] (H-CNWHGTAPCWFFNYYW-OH; disulfide 1-9)
- IC50: > 5000 nM

SMILES: CC[C@H](C)[C@H](NC(=O)[C@H](CC(=O)O)NC(=O)[C@H](CC(C)C)NC(=O)[C@H](Cc1c[nH]cn1)NC(=O)[C@H](C)NC(=O)[C@H](Cc1ccc(O)cc1)NC(=O)[C@H](Cc1ccc(O)cc1)NC(=O)[C@H](CC(N)=O)NC(=O)[C@H](Cc1ccccc1)NC(=O)[C@H](Cc1ccccc1)NC(=O)[C@H](Cc1c[nH]c2ccccc12)NC(=O)[C@@H]1CC(=O)NCC(=O)N[C@@H](CC(N)=O)C(=O)N[C@@H](Cc2c[nH]c3ccccc23)C(=O)N[C@@H](Cc2c[nH]cn2)C(=O)NCC(=O)N[C@@H]([C@@H](C)O)C(=O)N[C@@H](C)C(=O)N2CCC[C@H]2C(=O)N1)C(=O)N[C@H](C(=O)N[C@@H](Cc1c[nH]c2ccccc12)C(=O)O)[C@@H](C)CC [Compound I-40] (GNWHGTAPDWFFNYYAHLDIIW-OH; lactam N-9 (inferred); C-terminus assumed)
- IC50 [1]: > 45 nM

SMILES: C[C@@H]1NC(=O)[C@H]([C@@H](C)O)NC(=O)CNC(=O)[C@H](Cc2c[nH]cn2)NC(=O)[C@H](Cc2c[nH]c3ccccc23)NC(=O)[C@H](CC(N)=O)NC(=O)CNC(=O)C[C@@H](C(=O)N[C@@H](Cc2c[nH]c3ccccc23)C(=O)N[C@@H](CC(N)=O)C(=O)N[C@@H](Cc2ccc(O)cc2)C(=O)N[C@@H](Cc2ccc(O)cc2)C(=O)N[C@@H](Cc2c[nH]c3ccccc23)C(=O)O)NC(=O)[C@@H]2CCCN2C1=O [Compound I-32] (GNWHGTAPDWNYYW-OH; lactam N-9)
- IC50: > 570 nM

SMILES: C[C@@H]1NC(=O)[C@H]([C@@H](C)O)NC(=O)CNC(=O)[C@H](Cc2c[nH]cn2)NC(=O)[C@H](Cc2c[nH]c3ccccc23)NC(=O)[C@H](CC(N)=O)NC(=O)CNC(=O)C[C@@H](C(=O)N[C@@H](Cc2c[nH]c3ccccc23)C(=O)O)NC(=O)[C@@H]2CCCN2C1=O [Compound I-15] (GNWHGTAPDW-OH; lactam N-9)
- IC50: > 900 nM

SMILES: C[C@@H]1NC(=O)[C@H]([C@@H](C)O)NC(=O)CNC(=O)[C@H](Cc2c[nH]cn2)NC(=O)[C@H](Cc2c[nH]c3ccccc23)NC(=O)[C@H](CC(N)=O)NC(=O)CNC(=O)C[C@@H](C(=O)O)NC(=O)[C@@H]2CCCN2C1=O [Compound I-14] (GNWHGTAPD-OH; lactam N-9)
- IC50: > 1000 nM

SMILES: CC(=O)N[C@H]1CSSC[C@@H](C(=O)N[C@@H](Cc2c[nH]c3ccccc23)C(=O)N[C@@H](Cc2ccccc2)C(=O)N[C@@H](Cc2ccccc2)C(=O)N[C@@H](CC(N)=O)C(=O)N[C@@H](Cc2ccc(O)cc2)C(=O)N[C@@H](Cc2ccc(O)cc2)C(=O)N[C@@H](Cc2c[nH]c3ccccc23)C(=O)O)NC(=O)[C@@H]2CCCN2C(=O)[C@H](C)NC(=O)[C@H]([C@@H](C)O)NC(=O)CNC(=O)[C@H](Cc2c[nH]cn2)NC(=O)[C@H](Cc2c[nH]c3ccccc23)NC(=O)[C@H](CC(N)=O)NC1=O [Compound I-8] (Ac-CNWHGTAPCWFFNYYW-OH; disulfide 1-9)
- IC50: > 5000 nM

SMILES: C[C@@H]1NC(=O)[C@H]([C@@H](C)O)NC(=O)CNC(=O)[C@H](Cc2c[nH]cn2)NC(=O)[C@H](Cc2c[nH]c3ccccc23)NC(=O)[C@H](CC(N)=O)NC(=O)CNC(=O)C[C@@H](C(=O)N[C@@H](Cc2c[nH]c3ccccc23)C(=O)N[C@@H](Cc2ccccc2)C(=O)N[C@@H](Cc2ccccc2)C(=O)N[C@@H](CC(N)=O)C(=O)N[C@@H](Cc2ccc(O)cc2)C(=O)N[C@@H](Cc2ccc(O)cc2)C(=O)N[C@@H](Cc2ccc3ccccc3c2)C(=O)O)NC(=O)[C@@H]2CCCN2C1=O [Compound I-49]
- IC50: 6.3 nM

SMILES: CC[C@H](C)[C@H](NC(=O)[C@H](CC(=O)O)NC(=O)[C@H](CC(C)C)NC(=O)[C@H](Cc1c[nH]cn1)NC(=O)[C@H](C)NC(=O)[C@H](Cc1ccccc1)NC(=O)[C@H](Cc1ccc(O)cc1)NC(=O)[C@@H](NC(=O)[C@H](Cc1c[nH]c2ccccc12)NC(=O)[C@H](CC(=O)O)NC(=O)[C@@H]1CCCN1C(=O)[C@H](C)NC(=O)[C@@H](NC(=O)CNC(=O)[C@H](Cc1c[nH]cn1)NC(=O)[C@H](Cc1c[nH]c2ccccc12)NC(=O)[C@H](CC(=O)O)NC(=O)CN)[C@@H](C)O)C(C)C)C(=O)N[C@H](C(=O)N[C@@H](Cc1c[nH]c2ccccc12)C(=O)O)[C@@H](C)CC [Compound I-43]
- IC50: 0.63 nM

SMILES: CC[C@H](C)[C@H](NC(=O)[C@H](CC(=O)O)NC(=O)[C@H](CC(C)C)NC(=O)[C@H](Cc1c[nH]cn1)NC(=O)[C@H](C)NC(=O)[C@H](Cc1c[nH]c2ccccc12)NC(=O)[C@@H]1CC(=O)NCC(=O)N[C@@H](CC(N)=O)C(=O)N[C@@H](Cc2c[nH]c3ccccc23)C(=O)N[C@@H](Cc2c[nH]cn2)C(=O)NCC(=O)N[C@@H]([C@@H](C)O)C(=O)N[C@@H](C)C(=O)N2CCC[C@H]2C(=O)N1)C(=O)N[C@H](C(=O)N[C@@H](Cc1c[nH]c2ccccc12)C(=O)O)[C@@H](C)CC [Compound I-35] (GNWHGTAPDWAHLDIIW-OH; lactam N-9 (inferred); C-terminus assumed)
- IC50 [1]: > 51 nM

SMILES: C[C@@H]1NC(=O)[C@H](C)NC(=O)[C@H]([C@@H](C)O)NC(=O)CNC(=O)[C@H](Cc2c[nH]cn2)NC(=O)[C@H](Cc2c[nH]c3ccccc23)NC(=O)[C@H](CC(N)=O)NC(=O)CNC(=O)C[C@@H](C(=O)N[C@@H](Cc2c[nH]c3ccccc23)C(=O)N[C@@H](Cc2ccccc2)C(=O)N[C@@H](Cc2ccccc2)C(=O)N[C@@H](CC(N)=O)C(=O)N[C@@H](Cc2ccc(O)cc2)C(=O)N[C@@H](Cc2ccc(O)cc2)C(=O)N[C@@H](Cc2c[nH]c3ccccc23)C(=O)O)NC1=O [Compound I-36] (GNWHGTAADWFFNYYW-OH; lactam N-9)
- IC50: > 570 nM

SMILES: CC[C@H](C)[C@H](NC(=O)[C@H](CC(N)=O)NC(=O)[C@H](Cc1ccc(O)cc1)NC(=O)[C@H](Cc1ccc(O)cc1)NC(=O)[C@H](CC(N)=O)NC(=O)[C@H](Cc1ccccc1)NC(=O)[C@H](Cc1ccccc1)NC(=O)[C@H](Cc1c[nH]c2ccccc12)NC(=O)[C@@H]1CC(=O)NCC(=O)N[C@@H](CC(N)=O)C(=O)N[C@@H](Cc2c[nH]c3ccccc23)C(=O)N[C@@H](Cc2c[nH]cn2)C(=O)NCC(=O)N[C@@H]([C@@H](C)O)C(=O)N[C@@H](C)C(=O)N2CCC[C@H]2C(=O)N1)C(=O)N[C@H](C(=O)N[C@@H](Cc1c[nH]c2ccccc12)C(=O)O)[C@@H](C)CC [Compound I-39] (GNWHGTAPDWFFNYYNIIW-OH; lactam N-9)
- IC50 [1]: > 72 nM

SMILES: C[C@@H]1NC(=O)[C@H]([C@@H](C)O)NC(=O)CNC(=O)[C@H](Cc2c[nH]cn2)NC(=O)[C@H](Cc2c[nH]c3ccccc23)NC(=O)[C@H](CC(N)=O)NC(=O)CNC(=O)C[C@@H](C(=O)N[C@@H](Cc2c[nH]c3ccccc23)C(=O)N[C@@H](Cc2ccccc2)C(=O)N[C@@H](Cc2ccccc2)C(=O)N[C@@H](CC(N)=O)C(=O)N[C@@H](Cc2ccc(O)cc2)C(=O)N[C@@H](Cc2ccc(O)cc2)C(=O)N[C@@H](Cc2c[nH]c3ccccc23)C(=O)N[C@@H](CC(N)=O)C(=O)N[C@@H](Cc2ccc(O)cc2)C(=O)N[C@@H](Cc2ccc(O)cc2)C(=O)N[C@@H](Cc2c[nH]c3ccccc23)C(=O)O)NC(=O)[C@@H]2CCCN2C1=O [Compound I-19] (GNWHGTAPDWFFNYYWNYYW-OH; lactam N-9)
- IC50: 370 nM

SMILES: CC(C)[C@H](NC(=O)[C@H](Cc1c[nH]c2ccccc12)NC(=O)[C@@H]1CC(=O)NCC(=O)N[C@@H](CC(N)=O)C(=O)N[C@@H](Cc2c[nH]c3ccccc23)C(=O)N[C@@H](Cc2c[nH]cn2)C(=O)NCC(=O)N[C@@H]([C@@H](C)O)C(=O)N[C@@H](C)C(=O)N2CCC[C@H]2C(=O)N1)C(=O)N[C@@H](Cc1ccc(O)cc1)C(=O)N[C@@H](Cc1ccccc1)C(=O)N[C@@H](C)C(=O)N[C@@H](Cc1ccccc1)C(=O)N[C@@H](Cc1ccccc1)C(=O)N[C@@H](CC(N)=O)C(=O)N[C@@H](Cc1ccc(O)cc1)C(=O)N[C@@H](Cc1ccc(O)cc1)C(=O)N[C@@H](Cc1c[nH]c2ccccc12)C(=O)O [Compound I-33] (GNWHGTAPDWVYFAFFNYYW-OH; lactam N-9)
- IC50 [1]: > 40 nM

SMILES: CC[C@H](C)[C@H](NC(=O)[C@H](CC(=O)O)NC(=O)[C@H](CC(C)C)NC(=O)[C@H](Cc1c[nH]cn1)NC(=O)[C@H](C)NC(=O)[C@H](Cc1ccccc1)NC(=O)[C@H](Cc1ccc(O)cc1)NC(=O)[C@@H](NC(=O)[C@H](Cc1c[nH]c2ccccc12)NC(=O)[C@H](CC(=O)O)NC(=O)[C@@H]1CCCN1C(=O)[C@H](C)NC(=O)[C@@H](NC(=O)CNC(=O)[C@H](CCCCN)NC(=O)[C@H](Cc1c[nH]c2ccccc12)NC(=O)[C@H](CC(N)=O)NC(=O)CN)[C@@H](C)O)C(C)C)C(=O)N[C@H](C(=O)N[C@@H](Cc1c[nH]c2ccccc12)C(=O)O)[C@@H](C)CC [Compound I-44]
- IC50: 0.29 nM

SMILES: CC[C@H](C)[C@H](NC(=O)[C@H](CC(=O)O)NC(=O)[C@H](CC(C)C)NC(=O)[C@H](Cc1c[nH]cn1)NC(=O)[C@H](C)NC(=O)[C@H](Cc1ccc(O)cc1)NC(=O)[C@H](Cc1ccc(O)cc1)NC(=O)[C@@H](NC(=O)[C@H](Cc1c[nH]c2ccccc12)NC(=O)[C@H](CC(=O)O)NC(=O)[C@@H]1CCCN1C(=O)[C@H](C)NC(=O)[C@@H](NC(=O)CNC(=O)[C@H](Cc1c[nH]cn1)NC(=O)[C@H](Cc1c[nH]c2ccccc12)NC(=O)[C@H](CC(N)=O)NC(=O)CN)[C@@H](C)O)C(C)C)C(=O)N[C@H](C(=O)N[C@@H](Cc1c[nH]c2ccccc12)C(=O)O)[C@@H](C)CC [Compound I-37]
- IC50 [1]: 0.83 nM
